According to patent US20090209460A1, “COMPOSITIONS AND METHODS FOR TREATING OBESITY AND RELATED METABOLIC DISORDERS” (Amylin Pharmaceuticals, Inc., priority 2005, published 2009):
Residues, ends and D or L forms follow the SMILES beside them.

Tests used:
NIH/Swiss mice = assay: acute food intake assay, lean overnight-fasted NIH/Swiss mice, intraperitoneal injection; type: in vivo, mouse
Procedure: The effect of NMX Peptides, FNX Peptides or NMX Receptor agonists on food intake when systemically administered was investigated using an acute food intake assay. This assay measured food consumption in lean subjects. Lean, group-housed, overnight-fasted NIH/Swiss mice. All in vivo tests were performed with peripheral injections of peptide. […] The dose-response data are presented herein. The protocol is described below. Female NIH/Swiss mice (8-24 weeks old) were group housed with a 12:12 hour light:dark cycle, with lights on at 0300. Water and a standard pelleted mouse chow diet are available ad libitum, except as noted. Animals are fasted starting at approximately 1530 hrs, 1 day prior to experiment. At time=0 min, all animals are given an intraperitoneal injection of vehicle or polypeptide in a volume of 200 uL/mouse and immediately given a pre-weighed amount (10-15 g) of the standard chow. Food is removed and weighed at 30, 60, and 120 minutes to determine the amount of food consumed. The effects of treatment on food intake are expressed as % change relative to control.

[1] = body weight and food intake in mice with diet induced obesity (mouse DIO), osmotic pump; type: in vivo; conditions: mouse DIO
Procedure: The effect of FN38 and related compounds on body weight and food intake in obese subjects was investigated. Mice having diet induced obesity (DIO) were used. All in vivo tests were performed with peripheral injections of peptide. […] 4-week-old male C57BL/6 mice were group housed with water and a standard pelleted mouse chow diet available ad libitum, except as noted, and were maintained on a on a high fat diet (58% kcal from fat) for 4 weeks prior to the experiment. At the end of fattening period, osmotic pumps were implanted interscapularly under anesthesia. Mice received pumps continuously delivering vehicle (50% DMSO in water or saline) or polypeptide at the dose indicated. Food intake and body weight measurements were obtained weekly.

[2] = brush border membrane (BBM) stability assay; type: in vitro ADME, human
Procedure: Some exemplary NMX Peptides and FNX Peptides were tested for stability in a brush border membrane (BBM) assay as described herein. To determine the enzymatic stability of peptide hormones peptides are incubated with a preparation of human brush border membranes extract (e.g., kidney), and the stability of the peptide is determined by measuring concentration of the intact peptide at specific intervals. The brush border membrane extract contains dipeptidyl peptidase IV (DPP-IV), neutral endopeptidases, peptidyl-dipeptidase A, carboxypeptidases and aminopeptidases. These are the primary enzymes that degrade peptides in vivo and are found in the kidneys, liver, lungs and pancreas. Resistance against these human proteases would increase peptide half-life. In the BBM assay test peptide was subjected to digestion over a period of five (5) hours with human brush border membrane extracts, e.g. kidney, at 37° C. At desired timepoints digestion was stopped by addition of quench solution, typically 50% ACN, 1% FA. After centrifugation to remove membrane debris, supernatant was subjected to mass spectrometry using a selected ion scan for the intact molecule of interest. Values are expressed as a percent of stable. A value of at least 80 or greater is regarded as an extremely stable molecule. A value of at least 70 or greater is a molecule with significant stability.

[3] = system: mice with diet induced obesity (mouse DIO); assay: cumulative food intake in mouse DIO after IP injection (FIGS. 6 and 7); type: in vivo; conditions: injected IP at t=0; measured at 30, 60, 120 and 180 min
Procedure: The activities of the following compounds are shown: A, [MimicB36] FN38; B, [His37] FN38; C,
[His35] FN38; D, [Phe33] FN38; E, [Val33] FN38; F, Des-(Ser6,Lys7,Thr8,Gln9) FN38; G, Des-Val16,Val17-FN38; H, [Phe31] FN38; I, Des-(Val16,Val17,Phe24,Ala25,Ser26,Gln27) FN38; J, Des-(Phe1,Leu2,Phe3,His4)FN38; and K, Des-(Phe24,Ala25,Ser26,Gln27)-FN38. […] Points represent mean±sd of n=4 cages (3 mice/cage). Peptide was injected IP at t=0. Food was introduced immediately after injection and amount consumed measured at t=30, 60, 120, and 180 min. In the figure, * p<0.05 vs. vehicle control; ANOVA, Dunnett's test.

Q: With `CC[C@H](C)[C@H](NC(=O)[C@@H](NC(=O)CNC(=O)CNC(=O)[C@@H]1CCCN1C(=O)[C@@H](NC(=O)[C@H](CCC(N)=O)NC(=O)[C@@H](NC(=O)[C@H](CCC(=O)O)NC(=O)[C@H](CCC(=O)O)NC(=O)[C@H](CC(=O)O)NC(=O)[C@H](CO)NC(=O)[C@H](CC(N)=O)NC(=O)[C@H](CO)NC(=O)[C@H](CCCCN)NC(=O)CNC(=O)[C@H](CC(C)C)NC(=O)[C@H](CCCCN)NC(=O)[C@H](CCC(N)=O)NC(=O)[C@@H](NC(=O)[C@H](CCCCN)NC(=O)[C@H](CO)NC(=O)[C@H](Cc1ccc(O)cc1)NC(=O)[C@H](Cc1c[nH]cn1)NC(=O)[C@H](Cc1ccccc1)NC(=O)[C@H](CC(C)C)NC(=O)[C@@H](N)Cc1ccccc1)[C@@H](C)O)C(C)C)C(C)C)C(C)C)C(=O)N[C@@H](CO)C(=O)N[C@@H](CC(N)=O)C(=O)NCC(=O)N[C@@H](Cc1ccc(O)cc1)C(=O)N[C@@H](Cc1ccccc1)C(=O)N[C@@H](CC(C)C)C(=O)N[C@@H](Cc1ccccc1)C(=O)N[C@@H](CCCNC(=N)N)C(=O)N1CCC[C@H]1C(=O)N[C@@H](CCCNC(=N)N)C(=O)N[C@@H](CC(N)=O)C(N)=O` [Compound 165063] (H-FLFHYSKTQKLGKSNSDEEVQVPGGVISNGYFLFRPRN-NH2; N-terminus assumed) as the compound, how does the “reduction of food intake” value (NIH/Swiss mice; administered systemically (i.p. to mice), dose and time not stated) read?
A: The value was “at least 89%”.

Q: And the “FI (60′, 200)” value (NIH/Swiss mice; food intake, % change relative to control, 60 min, dose 200)?
A: The value was −88%.

Q: And the “ED50 at t = 60” value (NIH/Swiss mice; food intake, t = 60)?
A: Its value is 6 nmol/kg.

Q: And the “Food Intake Inhibition” value (NIH/Swiss mice; mouse assay, dose of 200 mg/kg, measured at 60 minutes)?
A: The value was −88%.

Q: What about the “d 7 BWt loss” value ([1]; day 7) of the same compound?
A: The value was 5.1%.

Q: And the “d 14 BWt loss” value ([1]; day 14)?
A: The value was 8.6%.

Q: And the remaining at 5 h ([2]; brush border membrane extract (e.g. kidney), percent compound remaining after a 5 hour incubation, human brush border membrane assay, read-out: hBBM)?
A: Its remaining at 5 h is 73%.

Q: What about the BBM ([2]; percent of stable, human brush border membrane extracts, five hours, 37° C.) of the same compound?
A: Its BBM is 73%.

Q: With `CC(C)C[C@H](NC(=O)[C@H](CCCCN)NC(=O)[C@H](CCC(N)=O)NC(=O)[C@@H](NC(=O)[C@H](CCCCN)NC(=O)[C@H](CO)NC(=O)[C@H](Cc1ccc(O)cc1)NC(=O)[C@H](Cc1c[nH]cn1)NC(=O)[C@H](Cc1ccccc1)NC(=O)[C@H](CC(C)C)NC(=O)[C@@H](N)Cc1ccccc1)[C@@H](C)O)C(=O)NCC(=O)N[C@@H](CCCCN)C(=O)N[C@@H](CO)C(=O)N[C@@H](CC(N)=O)C(=O)N[C@H](C(=O)N[C@H](C(=O)N[C@@H](CCC(=O)O)C(=O)N[C@@H](CCC(=O)O)C(=O)N[C@@H](CC(C)C)C(=O)N[C@@H](CCC(N)=O)C(=O)N[C@@H](CO)C(=O)N1CCC[C@H]1C(=O)N[C@@H](Cc1ccccc1)C(=O)N[C@@H](C)C(=O)N[C@@H](CO)C(=O)N[C@@H](CCC(N)=O)C(=O)N[C@@H](CO)C(=O)N[C@@H](CCCNC(=N)N)C(=O)NCC(=O)N[C@@H](Cc1ccc(O)cc1)C(=O)N[C@@H](Cc1ccccc1)C(=O)N[C@@H](CC(C)C)C(=O)N[C@@H](Cc1ccccc1)C(=O)N[C@@H](CCCNC(=N)N)C(=O)N1CCC[C@H]1C(=O)N[C@@H](Cc1c[nH]cn1)C(=O)N[C@@H](CC(N)=O)C(N)=O)C(C)C)C(C)C` [Compound B] (H-FLFHYSKTQKLGKSNVVEELQSPFASQSRGYFLFRPHN-NH2; N-terminus assumed) as the compound, how does the “cumulative food intake in mouse DIO (FIGS. 6A, 6B, 7A, 7B)” value [3] read?
A: Its value is “either not active or weakly active”.

Q: For `CC(C)C[C@H](NC(=O)[C@H](CCCCN)NC(=O)[C@H](CCC(N)=O)NC(=O)[C@@H](NC(=O)[C@H](CCCCN)NC(=O)[C@H](CO)NC(=O)[C@H](Cc1ccc(O)cc1)NC(=O)[C@H](Cc1c[nH]cn1)NC(=O)[C@H](Cc1ccccc1)NC(=O)[C@H](CC(C)C)NC(=O)[C@@H](N)Cc1ccccc1)[C@@H](C)O)C(=O)NCC(=O)N[C@@H](CCCCN)C(=O)N[C@@H](CO)C(=O)N[C@@H](CC(N)=O)C(=O)N[C@H](C(=O)N[C@H](C(=O)N[C@@H](CCC(=O)O)C(=O)N[C@@H](CCC(=O)O)C(=O)N[C@@H](CC(C)C)C(=O)N[C@@H](CCC(N)=O)C(=O)N[C@@H](CO)C(=O)N1CCC[C@H]1C(=O)N[C@@H](Cc1ccccc1)C(=O)N[C@@H](C)C(=O)N[C@@H](CO)C(=O)N[C@@H](CCC(N)=O)C(=O)N[C@@H](CO)C(=O)N[C@@H](CCCNC(=N)N)C(=O)NCC(=O)N[C@@H](Cc1ccc(O)cc1)C(=O)N[C@@H](Cc1ccccc1)C(=O)N[C@@H](CC(C)C)C(=O)N[C@@H](Cc1ccccc1)C(=O)N[C@@H](Cc1c[nH]cn1)C(=O)N1CCC[C@H]1C(=O)N[C@@H](CCCNC(=N)N)C(=O)N[C@@H](CC(N)=O)C(N)=O)C(C)C)C(C)C` [Compound C] (H-FLFHYSKTQKLGKSNVVEELQSPFASQSRGYFLFHPRN-NH2; N-terminus assumed), which “cumulative food intake in mouse DIO (FIGS. 6A, 6B, 7A, 7B)” value [3] is on record?
A: The value was “either not active or weakly active”.
